Measured values as given in patent US7868176B2, “Salts of N-(4-fluorobenzyl)-N-(1-methylpiperidin-4-y1)-N′-(4-(2-methylpropyloxy)phenylmethyl)carbamide and their preparation” (ACADIA Pharmaceuticals, Inc., priority 2004, dated 2011).
In brackets after ≈: the same amount, converted by molar mass. Structures can show the parent of a compound that is named as a salt.

Columns and labels:
[1] = Approximate solubility in water; type: physicochemical
Experimental: The limit value of completely dissolved amount was determined. Determination of solubilities below 20 mg/l occurred with stirring suspensions in water, filtering off the excess, and measuring of the amount of substance in the filtrate.

[2] = Storage stability of the crystalline salt (HPLC area, Raman, appearance); type: physicochemical; settings: for HPLC area reference value: reference value against which the HPLC area after 1 week at 60° C./75% r.h. is compared; for Storage stability (general statement): crystalline forms disclosed
Experimental: FT-Raman Spectroscopy: Bruker RFS100. Nd:YAG 1064 nm excitation, 100 mW laser power, Ge-detector, 64 scans, range 25-3500 cm^−1, […].
HPLC: HPLC measurement were carried out with a HP LC1090M, Column Symmetry C18, 3.0·150 mm.

[3] = approximate, double distilled water added stepwise to 5 mg substance, sonification
[4] = stored 1 week at 60° C. and about 75% r.h. in an open container
[5] = storage for 1 week at 100° C. in a closed ampoule
[6] = stored 1 week at 60° C. and about 75% r.h. in a closed container

Work on `CC(C)COc1ccc(CNC(=O)N(Cc2ccc(F)cc2)C2CCN(C)CC2)cc1` [Example 4, N-(4-fluorobenzyl)-N-(1-methylpiperidin-4-yl)-N′-(4-(2-methylpropyloxy)phenylmethyl)carbamide maleate] yielded a Solubility in water [1, 3] of over 500 mg/mL.
`CC(C)COc1ccc(CNC(=O)N(Cc2ccc(F)cc2)C2CCN(C)CC2)cc1` [Example 7, N-(4-fluorobenzyl)-N-(1-methylpiperidin-4-yl)-N′-(4-(2-methylpropyloxy)phenylmethyl)carbamide succinate] gave a Solubility in water [1, 3] of over 500 mg/mL.
For `CC(C)COc1ccc(CNC(=O)N(Cc2ccc(F)cc2)C2CCN(C)CC2)cc1.O=C(O)/C=C/C(=O)O` [Example 3, N-(4-fluorobenzyl)-N-(1-methylpiperidin-4-yl)-N′-(4-(2-methylpropyloxy)phenylmethyl)carbamide fumarate], the Solubility in water [1, 3] was over 500 mg/mL, the “HPLC area reference value” [2] was 99.4% and the “Changes on storage detected with Raman spectroscopy” value ([2]; storage at 75% r.h. in an open container) was “changes of the substance after 3 days”. For the same molecule, the “HPLC area after storage” value [2, 4] was 96.7% and the “State of crystalline powder after storage” value (shortened to “State of crystalline powder”) [2, 4] was “substantially unchanged”.
For `CC(C)COc1ccc(CNC(=O)N(Cc2ccc(F)cc2)C2CCN(C)CC2)cc1` [Example 9, N-(4-fluorobenzyl)-N-(1-methylpiperidin-4-yl)-N′-(4-(2-methylpropyloxy)phenylmethyl)carbamide edisylate], the Solubility in water [1, 3] was 4 mg/mL (≈ 9.36 mM), the “Storage stability (general statement)” value [2] was “good storage stability” and the “HPLC area reference value” [2] was 96.8%. The “HPLC area after storage” value [2, 5] was 97.4%, the “State of crystalline product after storage” value [2, 5] was “does not decompose” and the “HPLC area after storage” value [2, 6] was 97.4%. The “State of crystalline powder” value [2, 6] was “remains a white powder”.
In the case of `CC(C)COc1ccc(CNC(=O)N(Cc2ccc(F)cc2)C2CCN(C)CC2)cc1` [Example 2, N-(4-fluorobenzyl)-N-(1-methylpiperidin-4-yl)-N′-(4-(2-methylpropyloxy)phenylmethyl)carbamide citrate], the “Solubility in aqueous systems (general statement)” value ([1]; aqueous systems) is reported as “very soluble”, the solubility at 2 min ([1]; thermodynamic from solid, approximate, double distilled water added stepwise to 5 mg substance, sonification) is reported as about 14 mg/mL and the “Storage stability (general statement)” value [2] is reported as “good storage stability”. The “HPLC area reference value” [2] was 99.9%, the “HPLC area after storage” value [2, 4] was 99.4% and the “State of crystalline powder” value [2, 4] was “substantially unchanged”.
In the case of `CC(C)COc1ccc(CNC(=O)N(Cc2ccc(F)cc2)C2CCN(C)CC2)cc1` [Example 6, N-(4-fluorobenzyl)-N-(1-methylpiperidin-4-yl)-N′-(4-(2-methylpropyloxy)phenylmethyl)carbamide phosphate], the Solubility in water [1, 3] is reported as over 250 mg/mL.
`CC(C)COc1ccc(CNC(=O)N(Cc2ccc(F)cc2)C2CCN(C)CC2)cc1` [Example 5, N-(4-fluorobenzyl)-N-(1-methylpiperidin-4-yl)-N′-(4-(2-methylpropyloxy)phenylmethyl)carbamide malate] gave a Solubility in water [1, 3] of over 500 mg/mL.
